Results reported in US20260070913A1, “7-AMINO-3,4-DIHYDROPYRIMIDOPYRIMIDIN-2-ONE DERIVATIVE HAVING INHIBITORY ACTIVITY FOR PROTEIN KINASES AND THERAPEUTIC PHARMACEUTICAL COMPOSITION COMPRISING SAME” (KOREA INSTITUTE OF SCIENCE AND TECHNOLOGY, priority 2020, published 2026).

How the values were obtained:
ACK1 = ACK1 (Homo sapiens, UniProt Q07912); test: Inhibitory activity against ACK1 kinase; assay type: biochemical
Experimental: (§1) The inhibitory activities of the compounds of the present disclosure against two kinases, GCK and ACK1, were measured, and the IC50 values thereof were calculated.

GCK = biological target: T1, GCK (Homo sapiens, UniProt Q12851); test: Inhibitory activity against GCK kinase; assay type: biochemical
T1 sequence (Q12851 1-820): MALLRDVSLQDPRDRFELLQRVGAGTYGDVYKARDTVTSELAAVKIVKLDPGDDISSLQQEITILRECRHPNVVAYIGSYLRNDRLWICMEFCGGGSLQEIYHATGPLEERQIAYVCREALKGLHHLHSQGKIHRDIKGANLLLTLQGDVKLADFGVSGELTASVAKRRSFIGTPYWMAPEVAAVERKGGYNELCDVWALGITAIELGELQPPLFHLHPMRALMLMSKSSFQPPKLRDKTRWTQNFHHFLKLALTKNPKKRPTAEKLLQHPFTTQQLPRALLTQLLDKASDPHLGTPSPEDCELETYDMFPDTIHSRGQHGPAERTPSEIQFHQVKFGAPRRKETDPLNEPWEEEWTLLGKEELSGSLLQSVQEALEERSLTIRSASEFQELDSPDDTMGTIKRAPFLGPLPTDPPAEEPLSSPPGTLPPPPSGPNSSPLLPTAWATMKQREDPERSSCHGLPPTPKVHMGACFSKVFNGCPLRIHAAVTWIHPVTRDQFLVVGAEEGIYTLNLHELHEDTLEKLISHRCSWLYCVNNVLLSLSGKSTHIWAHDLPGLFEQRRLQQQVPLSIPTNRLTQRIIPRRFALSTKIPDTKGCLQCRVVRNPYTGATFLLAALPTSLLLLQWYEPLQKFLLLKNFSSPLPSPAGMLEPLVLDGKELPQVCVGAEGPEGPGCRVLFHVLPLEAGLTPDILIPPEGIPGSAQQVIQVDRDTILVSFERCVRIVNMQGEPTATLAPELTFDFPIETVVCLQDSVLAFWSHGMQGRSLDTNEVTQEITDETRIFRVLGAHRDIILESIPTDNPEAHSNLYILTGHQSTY
Experimental: as §1

OCI-AML3 (N-Ras Q61L) = test: Proliferation inhibitory activity, OCI-AML3 cell line; assay type: cell-based; details: Homo sapiens, OCI-AML-3
Experimental: (§2) The inhibitory activities of the compounds of the present disclosure against the proliferation of the mt-NRAS (G12D) Ba/F3 and OCI-AML3 (mt-NRAS) cell lines were measured, and the […] values thereof were calculated.
Referring to the results in Table 2, it can be seen that the compound of the present disclosure has inhibitory activity against the proliferation of the human acute myeloid leukemia cell line (OCI-AML3) having the NRAS mutant gene, and the effect thereof is remarkable. Therefore, it can be seen that the compound of the present disclosure is particularly effective as a therapeutic agent for acute myeloid leukemia (AML).

Ba/F3 (N-Ras G12D) = test: Proliferation inhibitory activity, mt-NRAS (G12D) Ba/F3 cell line; assay type: cell-based; details: Mus musculus, BaF3
Experimental: as §2

Sequence of ACK1 (Q07912 whole entry): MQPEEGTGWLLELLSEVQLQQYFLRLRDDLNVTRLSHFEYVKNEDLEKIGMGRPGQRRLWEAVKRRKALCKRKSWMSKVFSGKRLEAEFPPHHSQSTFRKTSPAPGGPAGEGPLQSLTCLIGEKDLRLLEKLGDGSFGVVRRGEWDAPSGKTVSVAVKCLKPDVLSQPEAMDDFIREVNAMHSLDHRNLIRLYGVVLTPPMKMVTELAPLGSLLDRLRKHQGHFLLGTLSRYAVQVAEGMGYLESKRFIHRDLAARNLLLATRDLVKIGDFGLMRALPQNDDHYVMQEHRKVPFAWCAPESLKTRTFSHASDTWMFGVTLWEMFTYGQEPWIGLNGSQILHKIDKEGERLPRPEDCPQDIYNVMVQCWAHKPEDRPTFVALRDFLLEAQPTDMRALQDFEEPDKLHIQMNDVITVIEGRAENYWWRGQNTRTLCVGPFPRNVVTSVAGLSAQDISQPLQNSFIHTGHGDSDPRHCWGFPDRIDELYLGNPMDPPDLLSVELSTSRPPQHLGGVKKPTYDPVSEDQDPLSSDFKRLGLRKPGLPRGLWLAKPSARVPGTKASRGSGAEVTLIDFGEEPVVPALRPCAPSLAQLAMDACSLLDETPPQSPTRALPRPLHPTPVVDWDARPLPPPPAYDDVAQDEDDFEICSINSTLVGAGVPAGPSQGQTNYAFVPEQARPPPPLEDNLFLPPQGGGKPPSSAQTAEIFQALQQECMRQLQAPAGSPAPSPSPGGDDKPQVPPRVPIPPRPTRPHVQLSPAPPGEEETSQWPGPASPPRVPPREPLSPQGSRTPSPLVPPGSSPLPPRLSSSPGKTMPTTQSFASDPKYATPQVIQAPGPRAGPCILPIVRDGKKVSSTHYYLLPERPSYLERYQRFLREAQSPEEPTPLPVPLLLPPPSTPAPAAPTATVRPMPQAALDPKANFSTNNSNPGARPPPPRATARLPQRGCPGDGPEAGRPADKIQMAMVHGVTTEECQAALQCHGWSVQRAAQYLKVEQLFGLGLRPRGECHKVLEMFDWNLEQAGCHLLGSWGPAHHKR

| IC50 (ACK1) [nM] | IC50 (GCK) [nM] | GI50 (OCI-AML3 (N-Ras Q61L)) [µM] | GI50 (Ba/F3 (N-Ras G12D)) [µM] | SMILES |
| --- | --- | --- | --- | --- |
| 1000 to 10000 | > 10000 | < 0.5 | 3 to 5 | Cc1ccc(Nc2ncc3c(n2)N(C)C(=O)N(c2cc(-c4ncc(-c5cccc(C(F)(F)F)c5)[nH]4)ccc2C)C3)cn1 [Compound No. 13, 1-methyl-3-(2-methyl-5-(5-(3-(trifluoromethyl)phenyl)-1H-imidazol-2-yl)phenyl)-7-((6-methylpyridin-3-yl)amino)-3,4-dihydropyrimido[4,5-d]pyrimidin-2(1H)-one] |
| < 100 | 100 to 1000 | < 0.5 | < 0.5 | COc1ccccc1-c1cnc(-c2ccc(C)c(N3Cc4cnc(Nc5cnn(C6CCN(C(C)=O)CC6)c5)nc4N(C)C3=O)c2)[nH]1 [Compound No. 7, 7-((1-(1-acetylpiperidin-4-yl)-1H-pyrazol-4-yl)amino)-3-(5-(5-(2-methoxyphenyl)-1H-imidazol-2-yl)-2-methylphenyl)-1-methyl-3,4-dihydropyrimido[4,5-d]pyrimidin-2(1H)-one] |
| 1000 to 10000 | > 10000 | 0.5 to 3 | 0.5 to 3 | Cc1ccc(-c2ncc(-c3cccc(F)c3F)[nH]2)cc1N1Cc2cnc(NC3CC3)nc2N(C)C1=O [Compound No. 11, 7-(cyclopropylamine)-3-(5-(5-(2,3-difluorophenyl)-1H-imidazol-2-yl)-2-methylphenyl)-1-methyl-3,4-dihydropyrimido[4,5-d]pyrimidin-2(1H)-one] |
| < 100 | 100 to 1000 | < 0.5 | < 0.5 | CCN1CCC(n2cc(Nc3ncc4c(n3)N(C)C(=O)N(c3cc(-c5ncc(-c6ccccc6OC(F)(F)F)[nH]5)ccc3C)C4)cn2)CC1 [Compound No. 10, 7-((1-(1-ethylpiperidin-4-yl)-1H-pyrazol-4-yl)amino)-1-methyl-3-(2-methyl-5-(5-(2-(trifluoromethoxy)phenyl)-1H-imidazol-2-yl)phenyl)-3,4-dihydropyrimido[4,5-d]pyrimidin-2(1H)-one] |
| < 100 | 100 to 1000 | < 0.5 | < 0.5 | CCN1CCC(c2ccc(Nc3ncc4c(n3)N(C)C(=O)N(c3cc(-c5ncc(-c6ccccc6OC)[nH]5)ccc3C)C4)cn2)CC1 [Compound No. 5, 7-((6-(1-ethylpiperidin-4-yl)pyridin-3-yl)amino)-3-(5-(5-(2-methoxyphenyl)-1H-imidazole-2-yl)-2-methylphenyl)-1-methyl-3,4-dihydropyrimido[4,5-d]pyrimidin-2(1H)-one] |
| < 100 | 1000 to 10000 | > 5 | 0.5 to 3 | Cc1ccc(-c2ncc(-c3ccccc3OC(F)(F)F)[nH]2)cc1N1Cc2cnc(Nc3ccc(N4CCOCC4)cc3)nc2N(C)C1=O [Compound No. 18, 1-methyl-3-(2-methyl-5-(5-(2-(trifluoromethoxy)phenyl)-1H-imidazol-2-yl)phenyl)-7-((4-morpholinophenyl)amino)-3,4-dihydropyrimido[4,5-d]pyrimidin-2(1H)-one] |
|  |  | > 5 | > 5 | CCN1CCN(c2ccc(Nc3ncc4c(n3)N(C)C(=O)N(c3cc(-c5ncc(-c6ccccc6OC(F)(F)F)[nH]5)ccc3C)C4)cn2)CC1 [Compound No. 16, 7-((6-(4-ethylpiperazin-1-yl)pyridin-3-yl)amino)-1-methyl-3-(2-methyl-5-(5-(2-(trifluoromethoxy)phenyl)-1H-imidazol-2-yl)phenyl)-3,4-dihydropyrimido[4,5-d]pyrimidin-2(1H)-one] |
| < 100 | 100 to 1000 | < 0.5 | < 0.5 | COc1ccccc1-c1cnc(-c2ccc(C)c(N3Cc4cnc(Nc5cnn(C)c5)nc4N(C)C3=O)c2)[nH]1 [Compound No. 1, 3-(5-(5-(2-methoxyphenyl)-1H-imidazol-2-yl)-2-methylphenyl)-1-methyl-7-((1-methyl-1H-pyrazol-4-yl)amino)-3,4-dihydropyrimido[4,5-d]pyrimidin-2(1H)-one] |
|  |  | > 5 | 3 to 5 | CCN1CCC(c2ccc(Nc3ncc4c(n3)N(C)C(=O)N(c3cc(-c5ncc(-c6ccccc6OC(F)(F)F)[nH]5)ccc3C)C4)cn2)CC1 [Compound No. 15, 7-((6-(1-ethylpiperidin-4-yl)pyridin-3-yl)amino)-1-methyl-3-(2-methyl-5-(5-(2-(trifluoromethoxy)phenyl)-1H-imidazol-2-yl)phenyl)-3,4-dihydropyrimido[4,5-d]pyrimidin-2(1H)-one] |
| < 100 | 1000 to 10000 | < 0.5 | < 0.5 | COc1ccccc1-c1cnc(-c2ccc(C)c(N3Cc4cnc(Nc5ccc(N6CCN(C(C)=O)CC6)nc5)nc4N(C)C3=O)c2)[nH]1 [Compound No. 6, 7-((6-(4-acetylpiperazin-1-yl)pyridin-3-yl)amino)-3-(5-(5-(2-methoxyphenyl)-1H-imidazol-2-yl)-2-methylphenyl)-1-methyl-3,4-dihydropyrimido[4,5-d]pyrimidin-2(1H)-one] |
|  |  | > 5 | > 5 | CC(=O)N1CCC(n2cc(Nc3ncc4c(n3)N(C)C(=O)N(c3cc(-c5ncc(-c6ccccc6OC(F)(F)F)[nH]5)ccc3C)C4)cn2)CC1 [Compound No. 17, 7-((1-(1-acetylpiperidin-4-yl)-1H-pyrazol-4-yl)amino)-1-methyl-3-(2-methyl-5-(5-(2-(trifluoromethoxy)phenyl)-1H-imidazol-2-yl)phenyl)-3,4-dihydropyrimido[4,5-d]pyrimidin-2(1H)-one] |
| < 100 | 100 to 1000 | < 0.5 | < 0.5 | COc1ccccc1-c1cnc(-c2ccc(C)c(N3Cc4cnc(Nc5ccc(C)nc5)nc4N(C)C3=O)c2)[nH]1 [Compound No. 3, 3-(5-(5-(2-methoxyphenyl)-1H-imidazol-2-yl)-2-methylphenyl)-1-methyl-7-((6-methylpyridin-3-yl)amino)-3,4-dihydropyrimido[4,5-d]pyrimidin-2(1H)-one] |
| 100 to 1000 | 100 to 1000 | 0.5 to 3 | 0.5 to 3 | CC(=O)N1CCN(c2ccc(Nc3ncc4c(n3)N(C)C(=O)N(c3cc(-c5ncc(-c6ccccc6OC(F)(F)F)[nH]5)ccc3C)C4)cn2)CC1 [Compound No. 14, 7-((6-(4-acetylpiperazin-1-yl)pyridin-3-yl)amino)-1-methyl-3-(2-methyl-5-(5-(2-(trifluoromethoxy)phenyl)-1H-imidazol-2-yl)phenyl)-3,4-dihydropyrimido[4,5-d]pyrimidin-2(1H)-one] |
| 100 to 1000 | > 10000 | < 0.5 | 0.5 to 3 | Cc1ccc(Nc2ncc3c(n2)N(C)C(=O)N(c2cc(-c4ncc(-c5cccc(F)c5F)[nH]4)ccc2C)C3)cn1 [Compound No. 12] |
| < 100 | 100 to 1000 | < 0.5 | < 0.5 | CCN1CCC(n2cc(Nc3ncc4c(n3)N(C)C(=O)N(c3cc(-c5ncc(-c6ccccc6OC)[nH]5)ccc3C)C4)cn2)CC1 [Compound No. 4, 7-((1-(1-ethylpiperidin-4-yl)-1H-pyrazol-4-yl)amino)-3-(5-(5-(2-methoxyphenyl)-1H-imidazol-2-yl)-2-methylphenyl)-1-methyl-3,4-dihydropyrimido[4,5-d]pyrimidin-2(1H)-one] |
|  |  | 0.5 to 3 | 0.5 to 3 | COc1ccccc1-c1cnc(-c2ccc(C)c(N3Cc4cnc(Nc5ccc(C)nc5C)nc4N(C)C3=O)c2)[nH]1 [Compound No. 2, 7-((2,6-dimethylpyridin-3-yl)amino)-3-(5-(5-(2-methoxyphenyl)-1H-imidazol-2-yl)-2-methylphenyl)-1-methyl-3,4-dihydropyrimido[4,5-d]pyrimidin-2(1H)-one] |
|  |  | 3 to 5 | 0.5 to 3 | Cc1ccc(Nc2ncc3c(n2)N(C)C(=O)N(c2cc(-c4ncc(-c5ccccc5OC(F)(F)F)[nH]4)ccc2C)C3)c(C)n1 [Compound No. 8, 7-((2,6-dimethylpyridin-3-yl)amino)-1-methyl-3-(2-methyl-5-(5-(2-(trifluoromethoxy)phenyl)-1H-imidazole-2-yl)phenyl)-3,4-dihydropyrimido[4,5-d]pyrimidin-2(1H)-one] |
